Laboratory results from patent US6479233B1, “Electrogenerated chemiluminescence labels for analysis and/or referencing” (IGEN International, Inc., priority 1994, dated 2002).
Like-named read-outs stand apart in the source and are kept apart here.

Key:
[1] = Fluorescence spectra (CCD camera, 366 nm UV excitation); format: physicochemical; conditions: for fluorescence maximum: pH 8.5 sodium phosphate buffer
Protocol: (§1) Fluorescence and ECL spectra were recorded using a charge-coupled device (CCD) camera and spectrometer (1 mm entrance slit) interfaced to a Dell System 200 personal computer (Austin, Tex.) as previously described. The same procedures (spectral calibration etc.) were followed except that different pulse sequences were used and the CCD detector was maintained at −110° C. for the TPrA/THCOOH and TPrA/DPAS experiments and −100° C. for the S2O8^2−/DPAS experiments. Excitation for the fluorescence spectra was achieved by holding a longwave (366 nm) UV lamp (UVP, Inc., San Gabriel, Calif.; model UVGL-25; sold by Fisher Scientific, Pittsburgh, Pa.) next to the cell and at right angles to the entrance slit of the spectrometer.

[2] = ECL spectra (CCD camera and spectrometer); format: physicochemical; design: wavelength centered emission: unit not given here; conditions: for ECL maximum: pH 8.5 sodium phosphate buffer
Protocol: as §1
The DPAS/TPrA ECL spectrum and emission vs. potential scans utilized a 6×9 mm Pt gauze flag (52 mesh gauze; Aldrich) working electrode, an AgQRE and a round (9 mm diameter, 0.5 mm thick) Au foil counter electrode. The 2-THCOOH ECL spectrum also utilized this arrangement. The gauze working electrode was cleaned prior to each experiment by immersion in concentrated nitric acid followed by rinsing in distilled water and heating in a bunsen burner flame.
The DPAS/S2O8^2− ECL spectrum and emission vs. potential scan utilized a 2.0 mm diameter Pt disk working electrode sealed in glass in combination with a Pt wire counter electrode and AgQRE.

[3] = Cyclic voltammetry / standard potentials; format: physicochemical
Protocol: Cyclic voltammetry without photon detection was obtained by using either a BAS 100A Electrochemical Analyzer (Bioanalytical Systems, West Lafayette, Ind.) or a Princeton Applied Research (PAR) model 173/175 potentiostat/universal programmer (Princeton, N.J.) and Omnigraphic 20000 X-Y recorder (Bausch and Lomb-Houston Instrument Division, Austin, Tex.). Cyclic voltammograms with simultaneous photon detection were recorded using the PAR 173/175 in conjunction with a Hamamatsu C1230 photon counter (Bridgewater, N.J.) equipped with a Hamamatsu R928-P photomultiplier tube. The photomultiplier tube was housed in a water jacketed Products For Research, Inc. model TE308TSRF refrigerated chamber maintained at −10° C. Primary cooling of the water jacket to 10° C. was accomplished using an MGW Lauda model RMS6 refrigeration unit (sold by Brinkmann Instruments Co., Westbury, N.Y.). For plots of ECL intensity vs. potential, the output from the photon counter was fed into the Y-axis of the X-Y recorder during potential scans.
Except where noted, all electrochemical and ECL experiments utilized a conventional 3-electrode cell configuration. Pt disk working electrodes were polished on a felt pad (Buehler, Ltd., Lake Bluff, Ill.) before each experiment run with 0.05 μm alumina (Buehler, Ltd.) suspended in water.
For cyclic voltammetry runs without photon detection, the CPZ embodiment utilized a highly-oriented pyrolytic graphite (HOPG; Union Carbide, Cleveland, Ohio) working electrode (6 mm dia. disk with freshly exposed material for each experiment), Pt wire counter electrode and Ag quasi-reference electrode (AgQRE) in a recently describe configuration. See Xu, X.; Bard, A. J. Langmuir, 1994, 10, 2409. Similar runs for all other compounds utilized a 1.5 mm diameter Pt disk working electrode sealed in glass in combination with a Pt wire counter electrode and AgQRE.
Nonaqueous potential referencing to ferrocene was accomplished by adding the standard directly to the solutions. […]

[4] = Maximum solubility of aqueous DPAS in sodium phosphate buffer; format: physicochemical; conditions: 0.15 M sodium phosphate buffer (pH 7.5)
From the text: The maximum solubility of aqueous DPAS in 0.15 M sodium phosphate buffer (pH 7.5) is approximately 1×10^−5 M. At this low concentration, no anodic current can be observed for DPAS above the background oxidation of water as shown in FIG. 1. However, if 1×10^−5 M DPAS is oxidized in the presence of 0.15 M TPrA, an emission that coincides with an oxidation wave occurs that is superimposed on the TPrA oxidation and background oxidation of water as shown in FIGS. 2a-2b. The fact that an oxidation current is observed for 1×10^−5 M DPAS only in the presence of TPrA implicates a catalytic current enhancement due to the regeneration of DPAS via reduction of DPAS^+ by TPrA or an intermediate. For this catalysis, the cyclic sequence of reactions is analogous to equation schemes (5), (6a), (7), (8) or (10) and (11), and (9) above where Ru(bpy)3^3+/2+/+ is replaced by DPAS^+/0/− respectively, XY^z is TPrA, X^x is Pr2NCH.Et and Y^y is H^+. Despite the low DPAS concentration, 1×10^−5 M, this emission is visibly blue when viewed in a dark room and no emission is observed in the absence of either TPrA or DPAS.

[5] = design: peak emission: unit not given here; conditions: cited from earlier work; for fluorescence efficiency φF: aqueous media
[6] = non-aqueous ion annihilation scheme; cited from earlier work

SMILES: O=C(O)c1cccc2c1Sc1ccccc1S2 [1-THCOOH, 1-thianthrenecarboxylic acid]
- fluorescence maximum ([1]; 0.15 M TPrA): 505 nm
- ECL maximum ([2]; 0.15 M TPrA): 570 nm

SMILES: O=C(O)c1ccc2c(c1)Sc1ccccc1S2 [2-THCOOH, 2-thianthrenecarboxylic acid]
- fluorescence maximum ([1]; 0.15 M TPrA): 480 nm
- ECL maximum ([2]; 0.15 M TPrA): 570 nm
- oxidation potential ([3]; aqueous solution, pH 8.5 sodium phosphate buffer, Pt electrode, vs SCE): ~+1.0 V

SMILES: O=S(=O)([O-])c1ccc2c(-c3ccccc3)c3ccccc3c(-c3ccccc3)c2c1.[Na+] [DPAS, sodium 9,10-diphenylanthracene-2-sulfonate]
- solubility [4]: ~10 µM
- singlet excited state energy Es [1]: 2.9 eV
- fluorescence peak intensity wavelength ([1]; 1.1 mM DPAS, 25 mM (NH4)2S2O8, MeCN-water 1:1): 430 nm
- fluorescence peak intensity wavelength ([1]; 1×10^−5 M DPAS, 0.15 M TPrA, pH 7.5 sodium phosphate buffer): 430 nm
- ECL peak intensity wavelength ([2]; 1.1 mM DPAS, 25 mM (NH4)2S2O8, MeCN-water 1:1, reduction at −2.2 V vs SCE): 430 nm
- ECL peak intensity wavelength ([2]; 1×10^−5 M DPAS, 0.15 M TPrA, pH 7.5 sodium phosphate buffer, oxidation): 430 nm
- wavelength centered emission ([2]; emission spectra of FIG. 19): 430
- E° of DPAS+/DPAS ([3]; oxidation): ≈ +1.3 V vs SCE
- E° of DPAS/DPAS− ([3]; reduction): ≈ −1.9 V vs SCE
- fluorescence efficiency φF [5]: 0.87
- peak emission ([5]; fluorescence): 428

SMILES: [Ru+2].c1ccc(-c2ccccn2)nc1.c1ccc(-c2ccccn2)nc1.c1ccc(-c2ccccn2)nc1 [Ru(bpy)3^2+, tris (2,2-bipyridine)ruthenium(II), reference compound]
- fluorescence efficiency φF [5]: about 0.05

SMILES: c1ccc2c(c1)Sc1ccccc1S2 [thianthrene, reference compound]
- emission maximum of fluorescence ([5]; in MeCN): 434 nm
- ECL peak intensity wavelength [6]: 434 nm
